Data set [1] has as its target T1, COX-2 (Ovis aries, UniProt P79208).
T1 construct: purchased Cayman Chemical
T1 sequence (P79208 17-603): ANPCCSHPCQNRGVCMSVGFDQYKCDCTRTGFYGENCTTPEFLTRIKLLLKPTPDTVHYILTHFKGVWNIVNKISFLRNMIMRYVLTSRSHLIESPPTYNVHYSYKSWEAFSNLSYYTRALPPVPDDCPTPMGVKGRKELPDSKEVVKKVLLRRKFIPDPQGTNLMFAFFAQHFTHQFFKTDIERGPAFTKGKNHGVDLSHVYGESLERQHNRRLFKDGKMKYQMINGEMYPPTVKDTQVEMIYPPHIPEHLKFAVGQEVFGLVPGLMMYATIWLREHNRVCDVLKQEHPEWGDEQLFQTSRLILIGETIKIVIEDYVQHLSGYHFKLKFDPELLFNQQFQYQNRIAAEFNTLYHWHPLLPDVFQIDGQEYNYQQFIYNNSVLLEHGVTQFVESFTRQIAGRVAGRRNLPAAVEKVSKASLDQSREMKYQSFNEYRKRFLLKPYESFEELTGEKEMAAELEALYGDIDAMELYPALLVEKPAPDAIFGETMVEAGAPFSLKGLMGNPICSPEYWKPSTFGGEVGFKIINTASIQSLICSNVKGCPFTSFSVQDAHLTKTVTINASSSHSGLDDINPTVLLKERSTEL
The data set is described as follows: biochemical. The conditions noted are these: for Selectivity Index (COX-1 IC50/COX-2 IC50): in-vitro COX-2 selectivity index; for IC50: ovine COX-1/COX-2 assay kit, means of two determinations. As to the method:
(§1) In-vitro cyclooxygenase (COX) inhibition assays
(§2) The assay was performed using an enzyme chemiluminescentkit (Cayman Chemical, MI, USA) according to our previously reportedmethod([17])The Cayman chemical chemiluminescent COX
(§3) (ovine) inhibitor screening assay utilizes the heme-catalyzedhydroperoxidase activity of ovine cyclooxygenases to generateluminescence in the presence of a cyclic naphthalene hydrazideand the substrate arachidonic acid. Arachidonate-induced luminescencewas shown to be an index of real-time catalytic activity anddemonstrated the turnover inactivation of the enzyme. Inhibition

The target in data set [2] is T2, COX-1 (Ovis aries, UniProt P05979).
T2 construct: purchased Cayman Chemical
T2 sequence (P05979 25-600): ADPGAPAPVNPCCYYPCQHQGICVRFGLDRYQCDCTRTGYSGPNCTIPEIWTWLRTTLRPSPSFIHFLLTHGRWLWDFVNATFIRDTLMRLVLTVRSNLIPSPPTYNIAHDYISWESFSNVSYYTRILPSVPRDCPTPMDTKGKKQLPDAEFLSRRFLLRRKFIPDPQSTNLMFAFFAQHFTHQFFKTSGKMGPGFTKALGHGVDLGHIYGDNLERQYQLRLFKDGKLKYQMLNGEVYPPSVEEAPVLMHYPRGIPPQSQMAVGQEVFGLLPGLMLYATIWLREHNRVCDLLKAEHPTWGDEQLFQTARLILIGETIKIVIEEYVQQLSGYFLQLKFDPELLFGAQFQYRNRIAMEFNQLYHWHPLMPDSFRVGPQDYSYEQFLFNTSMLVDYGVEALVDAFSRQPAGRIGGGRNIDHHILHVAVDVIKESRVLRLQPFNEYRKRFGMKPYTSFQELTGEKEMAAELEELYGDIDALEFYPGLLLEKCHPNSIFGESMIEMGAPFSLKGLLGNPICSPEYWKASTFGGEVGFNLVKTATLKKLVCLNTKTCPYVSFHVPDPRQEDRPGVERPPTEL
In words: biochemical. The conditions noted are these: ovine COX-1/COX-2 assay kit; means of two determinations. As for the experimental part: as §1, §2, §3

Data set [3] has as its system T47D cells. The data set is described as follows: MTT cytotoxicity assay. Type of data set: cell-based, human. The settings on record: for Survival (%) of T47D cells: MTT; for IC50: MTT assay, calculated after two days exposure. As for the experimental part: (§4) The human breast cancer T47D and MCF-7 cell lines were obtained from Pasteur Institute Cell Bank of IRAN (Tehran, IRAN). Cells were maintained in RPMI-1640(Gibco, UK) culture medium supplemented with 10% fetal bovine serum (Gibco, UK) and 100 U Ml^-1 of penicillin and […] of streptomycin (Gibco, UK) at 37 C in 5% CO2 incubator. All reagent and chemicals used in this experiment were of cell culture or molecular biology grade, purchased from different international sources.
(§5) The MTT (3-[4, 5-dimethylthiazol-2-yl]-2,5-diphenyl tetrazolium bromide) based assay was performed by seeding 5000 cells (T47D and MCF-7) per 180 µL RPMI complete culture medium in each well of 96-well culture plates. The day after seeding, culture medium was changed with medium containing standard anti-tumor drug Doxorubicin as well as different concentrations of newly synthesized compounds and RPMI control (no drug). Cells were then incubated at 37 °C in 5% Co2 incubator for 48h and 72h. Then 25 µL of MTT solution (4mg Ml^-1) were added to each well and further incubated at 37 °C for 3h. At the end of incubation, formazan crystals were dissolved in 100 µL of DMSO and plates were read in a plate reader (TECAN, Austria) at 540 nm. This experiment was performed in triplicate determination each time ([18],[19]).

For data set [4], the system named is MCF-7 cells. The data set is described as follows: MTT cytotoxicity assay. The data set is classed as cell-based, human. The settings on record: for Survival (%) of MCF-7 cells: MTT; for IC50: Homo sapiens, MCF7, 48 h, MTT assay, calculated after two days exposure. As for the experimental part:
as §4, §5

In the case of `CS(=O)(=O)c1ccc(-c2cc(Cn3ccnc3)c3cccc(-c4ccccc4)c3n2)cc1` [Compound 9a, 4-((1H-Imidazol-1-yl)methyl)-2-(4-methylsulfonylphenyl)-8-phenyl-quinoline], the melting point was 196 to 198 °C. Moreover, in data set [1], the “Selectivity Index (COX-1 IC50/COX-2 IC50)” value came out at 423.9 and the IC50 came out at 0.071 µM. This compound registered an IC50 in data set [2] of 30.1 µM. The “Survival (%) of T47D cells” value in data set [3] (25 µM compound, 48 h exposure) is 33.8%. The “Survival (%) of T47D cells” value in data set [3] (25 µM compound, 72 h exposure) is listed as 25.4%. In addition, the IC50 in data set [3] (Homo sapiens, T47D, 48 h) was not above 25 µM. Further, the IC50 in data set [3] was less than 25 µM. For the same compound, the “Survival (%) of MCF-7 cells” value in data set [4] (10 µM compound, 48 h exposure) was determined as 38.3%. Besides, in data set [4] (10 µM compound, 72 h exposure), the “Survival (%) of MCF-7 cells” value was 26.7%. In data set [4], the IC50 was less than 10 µM.
Take `Cc1ccc2c(Cn3ccnc3)cc(-c3ccc(S(C)(=O)=O)cc3)nc2c1C` [Compound 9b, 4-((1H-Imidazol-1-yl)methyl)-2-(4-methylsulfonylphenyl)-7,8-dimethyl-quinoline]: the melting point lay within 218 to 219 °C. For the same compound, in data set [1], the “Selectivity Index (COX-1 IC50/COX-2 IC50)” value stood at 288.9 and the IC50 turned out to be 0.09 µM. Also, 26 µM corresponded to half-maximal inhibition in data set [2] (IC50). In addition, the “Survival (%) of T47D cells” value in data set [3] (25 µM compound, 48 h exposure) is 66.2%. Moreover, the “Survival (%) of T47D cells” value in data set [3] (25 µM compound, 72 h exposure) came out at 69.5%. The IC50 in data set [3] (Homo sapiens, T47D, 48 h) was 50 µM. Further, in data set [4] (10 µM compound, 48 h exposure), the “Survival (%) of MCF-7 cells” value is listed as 61%. Besides, the “Survival (%) of MCF-7 cells” value in data set [4] (10 µM compound, 72 h exposure) is listed as 47.2%.
In turn, `CS(=O)(=O)c1ccc(-c2cc(Cn3ccnc3)c3ccc4ccccc4c3n2)cc1` [Compound 9c, 4-((1H-Imidazol-1-yl)methyl)-2-(4-methylsulfonylphenyl)-benzo[h]-quinoline] displayed a melting point of 216 to 217 °C. Also, in data set [1], the “Selectivity Index (COX-1 IC50/COX-2 IC50)” value is 527.9 and the IC50 came out at 0.068 µM. The compound also registered a concentration for half-maximal inhibition (IC50) in data set [2] of 35.9 µM. Besides, the “Survival (%) of T47D cells” value in data set [3] (25 µM compound, 48 h exposure) is on record as 75.8%. Besides, in data set [3] (25 µM compound, 72 h exposure), the “Survival (%) of T47D cells” value was 68.9%. Besides, the IC50 in data set [3] (Homo sapiens, T47D, 48 h) is 50 µM. In data set [4] (10 µM compound, 48 h exposure), the “Survival (%) of MCF-7 cells” value came to 48.4%. Further, the “Survival (%) of MCF-7 cells” value in data set [4] (10 µM compound, 72 h exposure) is 41.3%. The IC50 in data set [4] was 10 µM.
Regarding `CS(=O)(=O)c1ccc(-c2cc(Cn3ccnc3)c3ccc4c(c3n2)CCCC4)cc1` [Compound 9d, 4-((1H-Imidazol-1-yl)methyl)-7,8,9,10-tetrahydro-2-(4-methylsulfonylphenyl)-benzo[h]-quinoline], the melting point is 247 to 248 °C. Besides, in data set [1], the “Selectivity Index (COX-1 IC50/COX-2 IC50)” value worked out at 547.6 and the IC50 is 0.063 µM. The compound further gave an IC50 in data set [2] of 34.5 µM. Besides, in data set [3] (25 µM compound, 48 h exposure), the “Survival (%) of T47D cells” value came out at 49.1%. In addition, in data set [3] (25 µM compound, 72 h exposure), the “Survival (%) of T47D cells” value is 26.1%. The IC50 in data set [3] (Homo sapiens, T47D, 48 h) was 25 µM. Also, the “Survival (%) of MCF-7 cells” value in data set [4] (10 µM compound, 48 h exposure) was 4%. Also, the “Survival (%) of MCF-7 cells” value in data set [4] (10 µM compound, 72 h exposure) was 0.7%. The IC50 in data set [4] is less than 5 µM.
`CS(=O)(=O)c1ccc(-c2cc(Cn3ccnc3)c3ccccc3n2)cc1` [Compound 9e, 4-((1H-Imidazol-1-yl)methyl)-2-(4-methylsulfonylphenyl)-quinoline] showed a melting point of 189 to 190 °C. Further, in data set [1], the “Selectivity Index (COX-1 IC50/COX-2 IC50)” value is reported as 179.9 and the IC50 was found to be 0.072 µM. The compound also gave an IC50 in data set [2] of 13 µM. The “Survival (%) of T47D cells” value in data set [3] (25 µM compound, 48 h exposure) is on record as 47.4%. For the same compound, the “Survival (%) of T47D cells” value in data set [3] (25 µM compound, 72 h exposure) is 47.5%. The IC50 in data set [3] (Homo sapiens, T47D, 48 h) was 50 µM. Moreover, the IC50 in data set [3] is 25 µM. Further, the “Survival (%) of MCF-7 cells” value in data set [4] (10 µM compound, 48 h exposure) is given as 67.2%. Further, in data set [4] (10 µM compound, 72 h exposure), the “Survival (%) of MCF-7 cells” value was 58.2%.
As for `COc1cccc2c1C(=O)c1c(O)c3c(c(O)c1C2=O)C[C@@](O)(C(=O)CO)C[C@@H]3O[C@H]1C[C@H](N)[C@H](O)[C@H](C)O1` [Doxorubicin, reference compound], the IC50 was 0.1 µM in data set [3] (Homo sapiens, T47D, 48 h) and 0.25 µM in data set [4]. The “Survival (%) of T47D cells” value in data set [3] (doxorubicin at 100 nM, 48 h) turned out to be 53.2%; in data set [3] (doxorubicin at 100 nM, 72 h), 27.1%. Further, the “Survival (%) of MCF-7 cells” value was 50.2% in data set [4] (doxorubicin at 250 nM (column head says 10 µM), 48 h) and 31.7% in data set [4] (doxorubicin at 250 nM (column head says 10 µM), 72 h).

These data come from article PMC4986100, “Design, Synthesis and Biological Evaluation of4-(Imidazolylmethyl)-2-(4-methylsulfonyl phenyl)-Quinoline Derivatives as Selective COX-2 Inhibitors and In-vitro Anti-breast Cancer Agents” (Iranian Journal of Pharmaceutical Research : IJPR, 2016).
